From article PMC5681660, “Reduced hepatitis B and D viral entry using clinically applied drugs as novel inhibitors of the bile acid transporter NTCP” (Scientific Reports, 2017)
Structures can show the parent of a compound that is named as a salt.

Biological target: T1, human NTCP (Homo sapiens, UniProt Q14973)
T1 sequence (Q14973 1-349): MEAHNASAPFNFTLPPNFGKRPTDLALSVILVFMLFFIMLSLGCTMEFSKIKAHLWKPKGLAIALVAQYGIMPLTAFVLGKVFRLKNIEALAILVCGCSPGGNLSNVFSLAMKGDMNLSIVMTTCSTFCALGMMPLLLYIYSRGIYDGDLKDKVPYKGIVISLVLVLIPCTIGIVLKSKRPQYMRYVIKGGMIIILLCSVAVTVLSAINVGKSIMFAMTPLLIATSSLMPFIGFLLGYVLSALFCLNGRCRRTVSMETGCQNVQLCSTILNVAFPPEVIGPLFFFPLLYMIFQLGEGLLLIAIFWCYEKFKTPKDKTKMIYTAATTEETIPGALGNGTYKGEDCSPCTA
Test: Screening taurocholate uptake assay (96-well, [14C]taurocholate, 10 µM drug)
Settings: for B-score functional assay: screening taurocholate uptake, 10 µM drug

[1] = combined ranking of functional and binding screening assays
[2] = ranking over the functional and the binding screening assay

## CO[C@@]1(NC(=O)C(C(=O)O)c2ccc(O)cc2)C(=O)N2C(C(=O)O)=C(CSc3nnnn3C)CO[C@@H]21 (stereo partly shown) [Moxalactam disodium salt]
[1]
  Ranking score: 623.639
  B-score functional assay: -0.667

## CNc1ncnc2c1ncn2[C@@H]1O[C@H](CO)[C@@H](O)[C@H]1O [N6-methyladenosine]
[1]
  Ranking score: 568.625
  B-score functional assay: 0.107

## CC(=O)N[C@@H](CC(C)C)C(=O)O [N-Acetyl-L-leucine]
[1]
  Ranking score: 463.866
  B-score functional assay: -1.591

## NC(=O)c1ccc[n+]([C@@H]2O[C@H](COP(=O)([O-])OP(=O)(O)OC[C@H]3O[C@@H](n4cnc5c(N)ncnc54)[C@H](O)[C@@H]3O)[C@@H](O)[C@H]2O)c1 [Nadide]
[1]
  Ranking score: 475.971
  B-score functional assay: 0.371

## CC1CCc2c(N3CCC(O)CC3)c(F)cc3c(=O)c(C(=O)O)cn1c23 (stereo not shown) [Nadifloxacin]
[1]
  Ranking score: 1251.94
B-score
  B-score functional assay: 3.94

## CCOc1ccc2ccccc2c1C(=O)N[C@@H]1C(=O)N2[C@@H]1SC(C)(C)[C@@H]2C(=O)O [Nafcillin sodium salt monohydrate]
[2]
  Ranking score: 223.052
  B-score functional assay: 0.036

## CCN(CC)CCOC(=O)C(Cc1cccc2ccccc12)CC1CCCO1 (stereo not shown) [Nafronyl oxalate]
[1]
  Ranking score: 488.941
  B-score functional assay: -1.268

## CCn1cc(C(=O)[O-])c(=O)c2ccc(C)nc21.[Na+] [Nalidixic acid sodium salt]
[1]
  Ranking score: 500.32
  B-score functional assay: -0.033

## C=C1CC[C@@]2(O)[C@H]3Cc4ccc(O)c5c4[C@@]2(CCN3CC2CC2)[C@H]1O5 [Nalmefene hydrochloride]
[1]
  Ranking score: 642.564
  B-score functional assay: 0.055

## Cl.O.O.O=C1CC[C@@]2(O)[C@H]3Cc4ccc(O)c5c4[C@@]2(CCN3CC2CC2)[C@H]1O5 [Naltrexone hydrochloride dihydrate]
Ranking score beside the functional and binding assay B-scores of the screen
  Ranking score: 809.543

## c1ccc2c(CC3=NCCN3)cccc2c1 [Naphazoline hydrochloride]
[2]
  Ranking score: 143.903
  B-score functional assay: -2.093

## CCc1nn(CCCN2CCN(c3cccc(Cl)c3)CC2)c(=O)n1CCOc1ccccc1 [Nefazodone HCl]
[2]
  Ranking score: 227.321
  B-score functional assay: -1.389

## Cc1c(O)cccc1C(=O)N[C@@H](CSc1ccccc1)[C@H](O)CN1C[C@H]2CCCC[C@H]2C[C@H]1C(=O)NC(C)(C)C [Nelfinavir mesylate]
[2]
  Ranking score: 28.9828
  B-score functional assay: -3.419

## Cc1ccnc2c1NC(=O)c1cccnc1N2C1CC1 [Nevirapine]
[1]
  Ranking score: 548.284
  B-score functional assay: -1.052

## CO[C@]12C[C@@H](COC(=O)c3cncc(Br)c3)CN(C)[C@@H]1Cc1cn(C)c3cccc2c13 [Nicergoline]
[1]
  Ranking score: 615.79
  B-score functional assay: -0.256

## O=C(Nc1ccc([N+](=O)[O-])cc1Cl)c1cc(Cl)ccc1O [Niclosamide]
[2]
  Ranking score: 178.326
  B-score functional assay: -3.546

## O=C(NCCO[N+](=O)[O-])c1cccnc1 [Nicorandil]
[1]
  Ranking score: 1149.4
B-score
  B-score functional assay: 0.976

## Cn1c(NCCN(CCO)CCCc2ccc([N+](=O)[O-])cc2)cc(=O)n(C)c1=O [Nifekalant]
[1]
  Ranking score: 503.354
  B-score functional assay: 0.451

## Cc1c(NC(=O)c2cccnc2)c(=O)n(-c2ccccc2)n1C [Nifenazone]
[1]
  Ranking score: 560.079
  B-score functional assay: 0.488

## COC(=O)C1=C(C)NC(C)=C(C(=O)OCC(C)C)C1c1ccccc1[N+](=O)[O-] (stereo not shown) [Nisoldipine]
[2]
  Ranking score: 25.6905
  B-score functional assay: -7.104

## CC(=O)Oc1ccccc1C(=O)Nc1ncc([N+](=O)[O-])s1 [Nitazoxanide]
[2]
  Ranking score: 189.082
  B-score functional assay: -2.727

## NC(=O)N/N=C/c1ccc([N+](=O)[O-])o1 [Nitrofural]
[1]
  Ranking score: 535.985
  B-score functional assay: 0.068

## C#C[C@]1(O)CC[C@H]2[C@@H]3CCC4=CC(=O)CC[C@@H]4[C@H]3CC[C@@]21C [Norethindrone]
[2]
  Ranking score: 274.683
  B-score functional assay: -0.48

## OCCN1CCN(CCCN2c3ccccc3C=Cc3ccccc32)CC1 [Opipramol dihydrochloride]
[1]
  Ranking score: 627.796
  B-score functional assay: -0.641

## Cc1ncc([N+](=O)[O-])n1CC(O)CCl (stereo not shown) [Ornidazole]
[2]
  Ranking score: 260.803
  B-score functional assay: -1.861

## CCN(CC)CCc1nc(-c2ccccc2)no1.O=C(O)CC(O)(CC(=O)O)C(=O)O [Oxalamine citrate salt]
[1]
  Ranking score: 587.786
  B-score functional assay: 0.505

## CN1CCCN=C1/C=C/c1cccc(O)c1.O=C(O)c1cc2ccccc2c(Cc2c(O)c(C(=O)O)cc3ccccc23)c1O [Oxantel pamoate]
[2]
  Ranking score: 130.111
  B-score functional assay: -5.305

## CN(C(=O)CN(CCO)CC(=O)N(C)C(C)(C)Cc1ccccc1)C(C)(C)Cc1ccccc1 [Oxethazaine]
[1]
  Ranking score: 642.638
  B-score functional assay: 0.282

## CCCOc1ccc2nc(NC(=O)OC)[nH]c2c1 [Oxibendazol]
[2]
  Ranking score: 199.274
  B-score functional assay: -0.538

## C[C@]12C/C(=C/O)C(=O)C[C@@H]1CC[C@@H]1[C@@H]2CC[C@@]2(C)[C@H]1CC[C@]2(C)O [Oxymetholone]
[1]
  Ranking score: 467.145
  B-score functional assay: -1.45

## C=C1C(=O)O[C@H]2[C@H]1CC/C(C)=C/CC[C@@]1(C)O[C@@H]21 [Parthenolide]
[1]
  Ranking score: 607.546
  B-score functional assay: 2.985

## Nc1nc2[nH]cc(CCc3ccc(C(=O)N[C@@H](CCC(=O)O)C(=O)O)cc3)c2c(=O)[nH]1 [Pemetrexed disodium]
[2]
  Ranking score: 234.359
  B-score functional assay: -1.364

## Cc1cccn2c(=O)c(-c3nnn[nH]3)cnc12 [Pemirolast potassium]
[1]
  Ranking score: 607.829
  B-score functional assay: 0.868

## Nc1nc2c(ncn2CCC(CO)CO)c(=O)[nH]1 [Penciclovir]
[1]
  Ranking score: 573.819
  B-score functional assay: -0.886

## N=C(N)c1ccc(OCCCCCOc2ccc(C(=N)N)cc2)cc1 [Pentamidine isethionate]
[1]
  Ranking score: 489.028
  B-score functional assay: -0.233

## CC(=O)CCCCn1c(=O)c2c(ncn2C)n(C)c1=O [Pentoxifylline]
[1]
  Ranking score: 582.174
  B-score functional assay: -0.027

## OCCN1CCN(CCCN2c3ccccc3Sc3ccc(Cl)cc32)CC1 [Perphenazine]
[2]
  Ranking score: 88.5268
  B-score functional assay: -0.257

## Nc1ccc(/N=N/c2ccccc2)c(N)n1 [Phenazopyridine hydrochloride]
[2]
  Ranking score: 182.587
  B-score functional assay: -0.376

## [H]/N=C(/N)N/C(=N/[H])NCCc1ccccc1 [Phenformin hydrochloride]
[2]
  Ranking score: 172.511
  B-score functional assay: 0.533

## O=C1c2ccccc2C(=O)C1c1ccccc1 [Phenindione]
[1]
  Ranking score: 569.166
  B-score functional assay: 1.774

## c1ccc2c(c1)Nc1ccccc1S2 [Phenothiazine]
[1]
  Ranking score: 553.972
  B-score functional assay: -0.168

## CC(COc1ccccc1)N(CCCl)Cc1ccccc1 (stereo not shown) [Phenoxybenzamine hydrochloride]
[2]
  Ranking score: 229.8
  B-score functional assay: -0.06

## NC(=O)OCCCc1ccccc1 [Phenprobamate]
[1]
  Ranking score: 613.275
  B-score functional assay: 0.708

## CN1CCC(=C2c3ccccc3Sc3ccccc32)CC1 [Pimethixene maleate]
[1]
  Ranking score: 556.525
  B-score functional assay: -0.824

## O=c1[nH]c2ccccc2n1C1CCN(CCCC(c2ccc(F)cc2)c2ccc(F)cc2)CC1 [Pimozide]
[2]
  Ranking score: 234.734
  B-score functional assay: -2.417

## CC(=O)c1ccc2c(c1)N(CCCN1CCC(CCO)CC1)c1ccccc1S2 [Piperacetazine]
[1]
  Ranking score: 531.5
  B-score functional assay: -0.935

## CCN1CCN(C(=O)N[C@@H](C(=O)N[C@@H]2C(=O)N3[C@@H]2SC(C)(C)[C@@H]3C(=O)O)c2ccccc2)C(=O)C1=O [Piperacillin sodium salt]
[1]
  Ranking score: 549.729
  B-score functional assay: -0.194

## NS(=O)(=O)c1cc(C(=O)O)cc(N2CCCC2)c1Oc1ccccc1 [Piretanide]
[1]
  Ranking score: 548.109
  B-score functional assay: -0.384

## CS(=O)(=O)O.Cc1ccc2c(c1)c1c3n2CCNC3CCC1 (stereo not shown) [Pirlindole mesylate]
[1]
  Ranking score: 496.839
  B-score functional assay: 0.129

## CC(C)(C)C(=O)OCOC(=O)[C@@H]1N2C(=O)[C@@H](NC(=O)[C@H](N)c3ccccc3)[C@H]2SC1(C)C [Pivampicillin]
[2]
  Ranking score: 199.66
  B-score functional assay: 2.096

## COc1cc([C@@H]2c3cc4c(cc3[C@H](O)[C@H]3COC(=O)[C@H]23)OCO4)cc(OC)c1OC [Podophyllotoxin]
[1]
  Ranking score: 1193.91
B-score
  B-score functional assay: 1.781

## CC(=O)Nc1ccc(OCC(O)CNC(C)C)cc1 (stereo not shown) [Practolol]
[2]
  Ranking score: 213.764
  B-score functional assay: -2.472

## C[n+]1ccccc1/C=N/O [Pralidoxime chloride]
[1]
  Ranking score: 600.675
  B-score functional assay: -0.006

## O=C(Nc1cccc2c(=O)cc(-c3nnn[nH]3)oc12)c1ccc(OCCCCc2ccccc2)cc1 [Pranlukast]
[2]
  Ranking score: 43.359
  B-score functional assay: -8.959

## CC[C@H](C)C(=O)O[C@H]1C[C@H](O)C=C2C=C[C@H](C)[C@H](CC[C@@H](O)C[C@@H](O)CC(=O)O)[C@H]21 [Pravastatin]
[2]
  Ranking score: 245.632
  B-score functional assay: -3.481
